Measured values published in patent EP4603105A1, “PHARMACEUTICAL COMPOSITION CONTAINING CYCLIC COMPOUND HAVING SELECTIVE KRAS INHIBITORY EFFECT AGAINST HRAS AND NRAS” (CHUGAI SEIYAKU KABUSHIKI KAISHA, priority 2022, dated 2024).
Where two headings read alike, the source gives them in different places.

Experiments:
[1] = molecular target: GDP-bound NRAS wild-type protein (Homo sapiens, UniProt P01111); test: Binding to NRAS by surface plasmon resonance (SPR), KD and KD ratio to KRAS
How it was run: (§1)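 GDP-loaded biotinylated Avi-tag RAS proteins (E. coli-expressed) captured on a Biotin CAPture chip at ~100–300 RU; single-cycle kinetics at 30°C, 100 µL/min, 75 s injections of rising compound concentrations. HBS pH 7.4 running buffer with 1 mM DTT, 10 mM MgCl2, 10 µM GDP, 4% DMSO. KD from 1:1 binding fit.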

[2] = molecular target: GDP-bound KRAS wild-type protein (Homo sapiens, UniProt P01116); test: Binding to KRAS by surface plasmon resonance (SPR), dissociation constant KD
Chain of GDP-bound KRAS wild-type protein (P01116 1-188 isoform P01116-2): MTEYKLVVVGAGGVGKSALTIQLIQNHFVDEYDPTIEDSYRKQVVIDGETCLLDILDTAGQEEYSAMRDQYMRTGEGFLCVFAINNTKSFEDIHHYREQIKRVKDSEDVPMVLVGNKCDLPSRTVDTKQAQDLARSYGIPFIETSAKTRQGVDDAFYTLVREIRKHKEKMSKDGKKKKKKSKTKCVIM
How it was run: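 GDP-bound biotin-Avi RAS captured at ~100–300 RU, 30°C, pH 7.4 HBS containing 10 µM GDP, 10 mM MgCl2, 1 mM DTT, 0.01% Tween 20 and 4% DMSO. KD by 1:1 fitting.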

HRAS wild-type protein = HRAS wild-type protein (Homo sapiens, UniProt P01112); test: Binding to HRAS by surface plasmon resonance (SPR), KD and KD ratio to KRAS
Chain of HRAS wild-type protein (P01112 whole entry): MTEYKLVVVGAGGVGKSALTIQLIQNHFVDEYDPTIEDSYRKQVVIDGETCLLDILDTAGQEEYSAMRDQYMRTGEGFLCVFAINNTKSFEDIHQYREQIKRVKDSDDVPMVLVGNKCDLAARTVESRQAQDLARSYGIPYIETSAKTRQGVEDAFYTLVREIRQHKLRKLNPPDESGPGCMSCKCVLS
How it was run: as §1

[3] = system: human lung cancer strain NCI-H441; test: NCI-H441 cell proliferation inhibitory activity (CellTiter-Glo, 4 days); assay type: cell-based; conditions: read-out: NCl-H441 IC50
How it was run: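 Readout: […] after the ATP-based reagent. Compound: serial dilutions in dimethyl sulfoxide.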

[4] = ratio of KD for GDP-bound NRAS wild-type protein to KD for KRAS
[5] = ratio of KD for HRAS wild-type protein to KD for KRAS
[6] = ratio of KD with respect to GDP-bound NRAS wild-type protein to KD with respect to KRAS
[7] = Single Cycle Kinetics, 1:1 binding model
[8] = ratio of KD with respect to HRAS wild-type protein to KD with respect to KRAS
[9] = 50% proliferation inhibitory concentration, four days

Chain of GDP-bound NRAS wild-type protein (P01111 whole entry): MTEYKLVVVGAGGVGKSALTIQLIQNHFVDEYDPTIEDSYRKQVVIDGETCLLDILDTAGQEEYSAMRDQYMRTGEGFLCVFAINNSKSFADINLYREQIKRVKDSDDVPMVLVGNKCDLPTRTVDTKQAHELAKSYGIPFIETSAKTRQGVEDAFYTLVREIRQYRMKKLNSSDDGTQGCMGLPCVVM

Row | SMILES | NRAS /KRAS [1, 4] | Kd ([2]; 1:1 binding model) [nM] | HRAS /KRAS (HRAS wild-type protein; [5]) | IC50 ([3]; NCI-H441 cells, 4 days) [nM] | Kd ([2]; Single Cycle Kinetics) [nM] | NRAS /KRAS [1, 6] | Kd [2, 7] [nM] | HRAS /KRAS (HRAS wild-type protein; [8]) | IC50 [3, 9] [nM]
1 | CCOC[C@H]1C(=O)N[C@@H]([C@@H](C)CC)C(=O)N(C)CC(=O)N(C)[C@H]2C/C=C\CCN(C2=O)[C@@H](Cc2ccc(C)cc2)C(=O)N(C)CC(=O)N[C@@H](CCc2cc(F)c(C(F)(F)F)c(F)c2)C(=O)N2C[C@H](OCC)C[C@H]2C(=O)NC2(CC(C)(C)C2)C(=O)N(C)[C@@H](C2CCCC2)C(=O)N(C)[C@H](C(=O)N(C)C)CC(=O)N1C [PP2397] | A (a compound having 10 or more and less than 20 is denoted as A) | 0.051 | A (a compound having 10 or more and less than 20 is denoted as A) | 4.7 | – | – | – | – | –
2 | CCCC[C@@H]1NC(=O)C[C@@H](C(=O)N(C)C)N(C)C(=O)[C@H](C2CCCC2)N(C)C(=O)C2(CC(C)(C)C2)NC(=O)[C@@H]2C[C@@H](OCC)CN2C(=O)[C@H](CCc2ccc(C(F)(F)F)c(Cl)c2)NC(=O)CN(C)C(=O)[C@H](Cc2ccc(C(F)(F)F)cc2)N2CC/C=C\C[C@@H](C2=O)N(C)C(=O)CN(C)C(=O)[C@H]([C@@H](C)CC)NC1=O [PP3453] | A (a compound having 10 or more and less than 20 is denoted as A) | – | A (a compound having 10 or more and less than 20 is denoted as A) | 19.4 | 0.34 | – | – | – | –
3 | CCO[C@@H]1C[C@H]2C(=O)NC3(CC(C)(C)C3)C(=O)N(C)[C@@H](C3CCCC3)C(=O)N(C)[C@H](C(=O)N(C)C)CC(=O)N[C@@H](CC3CC3)C(=O)N[C@@H]([C@@H](C)CC)C(=O)N(C)CC(=O)N(C)[C@H]3C/C=C\CCN(C3=O)[C@@H](Cc3ccc(C(F)(F)F)cc3)C(=O)N(C)CC(=O)N[C@@H](CCc3ccc(C(F)(F)F)c(OC)c3)C(=O)N2C1 [PP3448] | A (a compound having 10 or more and less than 20 is denoted as A) | – | A (a compound having 10 or more and less than 20 is denoted as A) | 18.4 | 0.2 | – | – | – | –
4 | CCC[C@H]1C(=O)N[C@@H]([C@@H](C)CC)C(=O)N(C)CC(=O)N(C)[C@H]2C/C=C\CCN(C2=O)[C@@H](Cc2ccc(C(F)(F)F)cc2)C(=O)N(C)CC(=O)N[C@@H](CCc2ccc(C(F)(F)F)c(OC)c2)C(=O)N2C[C@H](OCC)C[C@H]2C(=O)OC2(CCC2)C(=O)N(C)[C@@H](C2CCCC2)C(=O)N(C)[C@H](C(=O)N(C)C)CC(=O)N1C [PP3370] | A (a compound having 10 or more and less than 20 is denoted as A) | – | B (a compound having 3 or more and less than 10 is denoted as B) | 6.8 | 0.14 | – | – | – | –
5 | CCOC[C@H]1C(=O)N[C@@H]([C@@H](C)CC)C(=O)N(C)CC(=O)N(C)[C@H]2C/C=C\CCN(C2=O)[C@@H](Cc2ccc(C(F)(F)F)cc2)C(=O)N(C)CC(=O)N[C@@H](CCc2ccc(C(F)(F)F)c(OC)c2)C(=O)N2C[C@H](OCC)C[C@H]2C(=O)N(C)C2(CCC2)C(=O)N(C)[C@@H](C(CC)CC)C(=O)N(C)[C@H](C(=O)N(C)C)CC(=O)N1C [PP2383] | A (a compound having 10 or more and less than 20 is denoted as A) | 0.12 | A (a compound having 10 or more and less than 20 is denoted as A) | 5.2 | – | – | – | – | –
6 | CCCC[C@@H]1NC(=O)C[C@@H](C(=O)N(C)C)N(C)C(=O)[C@H](C2CCCC2)N(C)C(=O)C2(CC(C)(C)C2)NC(=O)[C@@H]2C[C@@H](OCC)CN2C(=O)[C@H](CCc2cc(F)c(C(F)(F)F)c(F)c2)NC(=O)CN(C)C(=O)[C@H](Cc2ccc(C(F)(F)F)cc2)N2CC/C=C\C[C@@H](C2=O)N(C)C(=O)CN(C)C(=O)[C@H]([C@@H](C)CC)NC1=O [PP3456] | A (a compound having 10 or more and less than 20 is denoted as A) | – | A (a compound having 10 or more and less than 20 is denoted as A) | 16.4 | 0.2 | – | – | – | –
7 | CCOC[C@H]1C(=O)N[C@@H]([C@@H](C)CC)C(=O)N(C)CC(=O)N(C)[C@H]2C/C=C\CCN(C2=O)[C@@H](Cc2ccc(C)cc2)C(=O)N(C)CC(=O)N[C@@H](CCc2ccc(C(F)(F)F)c(OC)c2)C(=O)N2C[C@H](OCC)C[C@H]2C(=O)NC2(CC(C)(C)C2)C(=O)N(C)[C@@H](C2CCCC2)C(=O)N(C)[C@H](C(=O)N(C)CC)CC(=O)N1C [PP2445] | A (a compound having 10 or more and less than 20 is denoted as A) | 0.14 | B (a compound having 3 or more and less than 10 is denoted as B) | 11.7 | – | – | – | – | –
8 | CCO[C@@H]1C[C@H]2C(=O)OC3(CCC3)C(=O)N(C)[C@@H](C3CCCC3)C(=O)N(C)[C@H](C(=O)N(C)C)CC(=O)N(C)[C@@H]([C@@H](C)OC)C(=O)N[C@@H]([C@@H](C)CC)C(=O)N(C3CC3)CC(=O)N(C)[C@H]3C/C=C\CCN(C3=O)[C@@H](Cc3ccc(C)cc3)C(=O)N(C)CC(=O)N[C@@H](CCc3ccc(C(F)(F)F)c(OC)c3)C(=O)N2C1 [PP3393] | A (a compound having 10 or more and less than 20 is denoted as A) | – | B (a compound having 3 or more and less than 10 is denoted as B) | 4.7 | 0.51 | – | – | – | –
9 | CCO[C@@H]1C[C@H]2C(=O)NC3(CCC3)C(=O)N(C)[C@@H](C3CCCC3)C(=O)N(C)[C@H](C(=O)N3CCOCC3)CC(=O)N(C)[C@@H](CC3CCCC3)C(=O)N[C@@H]([C@@H](C)CC)C(=O)N(C)CC(=O)N(C)[C@H]3C/C=C\CCN(C3=O)[C@@H](Cc3ccc(C(F)(F)F)cc3)C(=O)N(C)CC(=O)N[C@@H](CCc3cc(F)c(C(F)(F)F)c(F)c3)C(=O)N2C1 [PP1393] | – | – | – | – | – | A (a compound having 10 or more and less than 20 is denoted as A) | 0.19 | A (a compound having 10 or more and less than 20 is denoted as A) | 18.2
10 | CCO[C@@H]1C[C@H]2C(=O)NC3(CCC3)C(=O)N(C)[C@@H](C3CCCC3)C(=O)N(C)[C@H](C(=O)N3CCCC3)CC(=O)N(C)[C@@H](CC)C(=O)N[C@@H]([C@@H](C)CC)C(=O)N(C)CC(=O)N(C)[C@H]3C/C=C\CCN(C3=O)[C@@H](CC3CCC(F)(F)CC3)C(=O)N(C)CC(=O)N[C@@H](CCc3cc(F)c(C(F)(F)F)c(F)c3)C(=O)N2C1 [PP1442] | – | – | – | – | – | A (a compound having 10 or more and less than 20 is denoted as A) | 0.13 | A (a compound having 10 or more and less than 20 is denoted as A) | 48.3
11 | CCO[C@@H]1C[C@H]2C(=O)NC3(CCC3)C(=O)N(C)[C@@H](C3CCCC3)C(=O)N(C)[C@H](C(=O)N(C)C)CC(=O)N(C)[C@@H](CC(F)F)C(=O)N[C@@H]([C@@H](C)CC)C(=O)N(C)CC(=O)N(C)[C@H]3CCCCCN(C3=O)[C@@H](Cc3ccc(F)cc3)C(=O)N(C)CC(=O)N[C@@H](CCc3cc(F)c(C(F)(F)F)c(F)c3)C(=O)N2C1 [PP1191] | – | – | – | – | – | A (a compound having 10 or more and less than 20 is denoted as A) | 0.056 | B (a compound having 3 or more and less than 10 is denoted as B) | 13
12 | CCCO[C@@H]1C[C@H]2C(=O)NC3(CC(C)(C)C3)C(=O)N(C)[C@@H](C3CCCC3)C(=O)N(C)[C@H](C(=O)N(C)CC)CC(=O)N[C@@H](COCC)C(=O)N[C@@H]([C@@H](C)CC)C(=O)N(C3CC3)CC(=O)N(C)[C@H]3C/C=C\CCN(C3=O)[C@@H](Cc3ccc(C)cc3)C(=O)N(C)CC(=O)N[C@@H](CCc3ccc(C(F)(F)F)c(OC)c3)C(=O)N2C1 [PP3437] | AA (a compound having 20 or more is denoted as AA) | – | A (a compound having 10 or more and less than 20 is denoted as A) | 51.6 | 1.3 | – | – | – | –
